The text below walks through data of US20090081153A1, “COMBINATION OF SYNTHETIC ANTIMICROBIAL POLYMERS AND SESQUITERPENOID COMPOUNDS” (POLYMEDIX, INC., priority 2007, published 2009).

The subject of one assay is E. coli. The assay can be described thus: Antimicrobial disc assay against E. coli. The assay is classed as cell-based. The note with it: another assay, comparison with traditional antibiotics; results not shown.
For another assay, the system named is E. coli ATCC 25922. Briefly: Inactivation kinetics, E. coli ATCC 25922 viability. The assay is classed as cell-based. The following applies: Compound C 31.25 μg/ml, Nerolidol 200 μM. The text has this:
The surviving cell numbers (log10) were plotted against time for each treatment. The average slopes were obtained using linear regression analysis and were used to calculate D-values for each treatment using D=−1/slope.

`CN[C@H](CC(C)C)C(=O)N[C@H]1C(=O)N[C@@H](CC(N)=O)C(=O)N[C@H]2C(=O)N[C@H]3C(=O)N[C@H](C(=O)N[C@H](C(=O)O)c4cc(O)cc(O)c4-c4cc3ccc4O)[C@H](O)c3ccc(c(Cl)c3)Oc3cc2cc(c3O[C@@H]2O[C@H](CO)[C@@H](O)[C@H](O)[C@H]2O[C@H]2C[C@](C)(N)[C@H](O)[C@H](C)O2)Oc2ccc(cc2Cl)[C@H]1O` [vancomycin]: the “Impact of sesquiterpenoids on activity against E. coli” value with E. coli was “no impact”.
Take `C=CC(C)(O)CCC=C(C)CCC=C(C)C` (mixture of isomers) [Nerolidol, nerolidol]: in the assay with E. coli ATCC 25922 (D=−1/slope of log10 survivors vs time), the “D-value (Decimal log reduction time)” value is recorded as 260.80 min. Moreover, the Surviving cell numbers with E. coli ATCC 25922 (Time 0 min) is listed as 8.83 log10; in the assay with E. coli ATCC 25922 (Time 5 min), 8.80 log10; in the assay with E. coli ATCC 25922 (Time 10 min), 8.79 log10; with E. coli ATCC 25922 (Time 15 min), 8.79 log10; with E. coli ATCC 25922 (Time 30 min), 8.77 log10.
For gentamicin, in the assay on E. coli, the “Impact of sesquiterpenoids on activity against E. coli” value is on record as “no impact”.
